Reference: patent US7041169B2, “Methods of generating and screening for high free energy forms in capillaries” (S.S.C.I., Inc., priority 2000, dated 2006)
In brackets after ≈: the same amount, converted by molar mass. Entries after “also recorded” stand apart in the source; their conditions may differ.

What was measured:
Type in all cases: physicochemical
[1] = Solubility of ROY in ethanol; conditions: 25 °C, organic solvent or mixture, 25 degrees C
Procedure: For this example, a solution of ROY in ethanol was prepared. A supersaturated solution of 160.3 mg of ROY in 2 mL of ethanol was prepared, having a supersaturation ratio of 6.7.

[2] = Solubility of ROY in water
[3] = Solidification of WAY from supersaturated ethanol solution in 95 capillary tubes (Example 5)
Procedure: A supersaturated solution of WAY in ethanol was prepared, having a supersaturation ratio of 2. The WAY solution was introduced into 95 capillary tubes. The tubes were left open at both ends and allowed to evaporate to the atmosphere. After about 25 minutes, sixty-two capillary tubes contained crystals. […] After about one hour, four additional capillary tubes contained white crystals, nine additional capillary tubes contained yellow crystals, and one additional capillary tube contained a mixture of white and yellow crystals.

[4] = Solidification of WAY from ethanol and aqueous ethanol in capillary tubes at different temperatures (Example 6, Table 1)
Procedure: For this example, solutions of the WAY compound were prepared at a supersaturation ratio of 2 in ethanol and in 10% aqueous ethanol. Each of these WAY solutions was introduced into twenty capillary tubes having a stated inner diameter of 0.5–0.6 mm and which had been washed by soaking in distilled water for about 10 minutes, rinsing with ethanol, and drying for at least an hour at 65 degrees C. The capillary tubes were maintained at room temperature and pressure (about 23 degrees C. and at about 45% relative humidity) and were observed periodically.
Solidification of the WAY compound from ethanol and aqueous ethanol solutions was also done at different temperatures (reported below in degrees Celsius). Table 1 summarizes the results of seven sets of twenty capillary tubes under set different sets of conditions.

| solubility [1] [mg/mL] | solubility in water [2] | Result (solid forms in 20 capillary tubes) ([4]; Solvent Aqueous ethanol, Temp 38 degrees Celsius, Time 0:50, tubes with mixed yellow and white crystals) | Result (solid forms in 20 capillary tubes) ([4]; Solvent Aqueous ethanol, Temp 38 degrees Celsius, Time 0:50, tubes with no solids formed) | Result (solid forms in 20 capillary tubes) ([4]; Solvent Aqueous ethanol, Temp 38 degrees Celsius, Time 1:13, tubes with mixed yellow and white crystals) | Result (solid forms in 20 capillary tubes) ([4]; Solvent Aqueous ethanol, Temp 38 degrees Celsius, Time 1:13, tubes with no solids formed) | Result (solid forms in 20 capillary tubes) ([4]; Solvent Aqueous ethanol, Temp 38 degrees Celsius, Time 1:42, tubes with mixed yellow and white crystals) | Result (solid forms in 20 capillary tubes) ([4]; Solvent Aqueous ethanol, Temp 38 degrees Celsius, Time 1:42, tubes with no solids formed) | Result (solid forms in 20 capillary tubes) ([4]; Solvent Aqueous ethanol, Temp −2 degrees Celsius, Time 4:35, tubes with white crystals) | Result (solid forms in 20 capillary tubes) ([4]; Solvent Aqueous ethanol, Temp −2 degrees Celsius, Time 4:35, tubes with yellow crystals) | Result (solid forms in 20 capillary tubes) ([4]; Solvent Ethanol, Temp 38 degrees Celsius, Time 0:50, tubes with mixed white and yellow crystals) | Result (solid forms in 20 capillary tubes) ([4]; Solvent Ethanol, Temp 38 degrees Celsius, Time 0:50, tubes with no solids formed) | Result (solid forms in 20 capillary tubes) ([4]; Solvent Ethanol, Temp 38 degrees Celsius, Time 1:43, tubes with mixed yellow and white crystals) | Result (solid forms in 20 capillary tubes) ([4]; Solvent Ethanol, Temp 38 degrees Celsius, Time 1:43, tubes with no solids formed) | Result (solid forms in 20 capillary tubes) ([4]; Solvent Ethanol, Temp −2 degrees Celsius, Time 4, tubes with white and yellow crystals) | Result (solid forms in 20 capillary tubes) ([4]; Solvent Ethanol, Temp −2 degrees Celsius, Time 4, tubes with white crystals) | SMILES | solid forms found in capillary tubes ([3]; after about 25 minutes, 95 tubes, sixty-two with crystals) | persistence of high free energy yellow crystals in capillary tubes ([3]; overnight (about thirteen hours and forty minutes), room temperature) |
| --- | --- | --- | --- | --- | --- | --- | --- | --- | --- | --- | --- | --- | --- | --- | --- | --- | --- | --- |
| ~12 (≈ 46.3 mM) | generally insoluble in water | – | – | – | – | – | – | – | – | – | – | – | – | – | – | Cc1cc(C#N)c(Nc2ccccc2[N+](=O)[O-])s1 [ROY, 5-methyl-2-[(2-nitrophenyl)amino]-3-thiophenecarbonitrile] | – | – |
| – | – | 2/20: mixture of yellow | 18/20: no solids formed | 5/20: mixture of yellow | 15/20: no solids formed | 19/20: mixture of yellow | 1/20: no solids formed | 1/20: white crystals | 19/20: yellow crystals | 16/20: mixture of white | 4/20: no solids formed | 17/20: mixture of yellow | 3/20: no solids formed | 2/20: white and yellow | 10/20: white crystals | CC(=O)Nc1ccc(C)cc1[N+](=O)[O-] [WAY, 4-methyl-2-nitro-acetanilide] | forty contained white crystals; also recorded: twenty-two contained yellow crystals | nineteen of those tubes had transformed to white crystals; also recorded: six still contained yellow crystals |
